Results: PMC6667281 (Biochemistry, 2019)

Experiments:
CymD [1] = target: T1, CymD (Salinispora arenicola, UniProt A8M6W6); experiment: prenyl donor in coupled pyrophosphate-release assay with purified CymD; type: biochemical
CymD [2] = target: T1, CymD; experiment: ITC; type: binding

T1 sequence (A8M6W6 2-373): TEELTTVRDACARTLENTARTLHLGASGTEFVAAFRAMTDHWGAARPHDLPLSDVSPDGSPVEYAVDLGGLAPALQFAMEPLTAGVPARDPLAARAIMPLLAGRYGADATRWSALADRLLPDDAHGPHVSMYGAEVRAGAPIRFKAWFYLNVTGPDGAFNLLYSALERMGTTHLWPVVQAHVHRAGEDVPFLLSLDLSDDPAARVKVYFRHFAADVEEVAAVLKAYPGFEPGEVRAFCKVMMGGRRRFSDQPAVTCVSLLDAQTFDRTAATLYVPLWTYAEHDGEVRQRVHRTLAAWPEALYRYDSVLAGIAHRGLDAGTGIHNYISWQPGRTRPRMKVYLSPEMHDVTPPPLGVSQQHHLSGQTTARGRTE

Structure (SMILES) | prenyl donor in coupled pyrophosphate-release assay with purified CymD (CymD [1]) | Kd (CymD [2]) [µM]
CC(C)=CCOP(=O)(O)OP(=O)(O)O [DMAPP] | Specific activities of CymD with DMAPP and various prenyl acceptor substrates. | –
N[C@@H](Cc1c[nH]c2ccccc12)C(=O)O [L-Trp] | – | 4.4 ± 0.4
